The subject of test [1] is MDA-MB-453. Put plainly: Cell cycle analysis by BrdU labeling and flow cytometry. The format is cell-based, human. To be noted: no constitutively-active Stat3. On the procedure: (§1) FIG. 6. Analysis of relative cellular DNA content using BrdU labeling and flow cytometry. Relative DNA content of human breast cancer cell lines following treatment with or without PLATINUM-401 was analyzed by BrdU incorporation and flow cytometry. The population of cells determined from the relative DNA content is shown in each panel for each treatment condition. Results are the representative of 3 independent determinations.
(§2) Cell proliferation and TUNEL assays—Proliferating cells were first treated with or without PLATINUM-401 for up to 48 h. A portion of cells were harvested for BrdU incorporation following the manufacturer's (BD Biosciences Pharmingen, San Diego, Calif.) instructions and analyzed by flow cytometry. Harvested cells were also analyzed for apoptosis via detection of TdT-mediated dUTP nick-end labeling (TUNEL) assay using Apoptosis Detection Systems Fluorescein according to the manufacturer's (Roche, Indianapolis, Ind.) instructions. Oligonucleotides and plasmids Transfections. The Stat3 antisense (5′-[…]-3′) (SEQ ID NO:3) or control mismatch oligonucleotides (5′-[…]-3′) (SEQ ID NO:4) were synthesized using phosphorothioate chemistry and were synthesized with 2′-Omethoxyethyl modification of the five terminal nucleotides (underlined; (Mora et al., 2002; Karras et al., 2000)) to increase stability. Transfections of Stat3AS and plasmids were carried out with Lipofectamine 2000 (LF) according to the manufacturer's instructions (Invitrogen, Carlsbad, Calif.). Briefly, cells were seeded at 1-2×10^6 cells/10-cm tissue-culture plates 18 h before transfection. Immediately before transfection, cells were washed once with PBS. Cells were transfected with luciferase reporters (4 μg) in the presence or absence of v-Src (4 μg), or were transfected with Stat3β (4 μg) or pRC/CMV Stat3 Flag (4 μg). […]
(§3) The inventors further examined the biological effects of PLATINUM-401 and determined whether any changes might correlate with the inhibition of constitutively-active Stat3. […]
(Uptake of a labelled nucleoside into DNA is a usual measure of proliferation.)

Test [2] relates to MDA-MB-231. Described as above. It is filed as cell-based, human. On the procedure: as §1, §2, §3
Test [3] deals with T1, inactive Stat1 monomer (Homo sapiens, UniProt P42224).
T1 construct: made in house; host or cells: Sf-9 insect cells infected with baculovirus
Put plainly: Inactive STAT monomer added to activated Stat3 before EMSA (titration of compound). It is filed as binding. The following applies: monomer added to activated Stat3, pre-incubated with compound 30 min. On the technique in general: A gel shift assay detects complexes by their altered migration in electrophoresis.

Test [4] relates to MDA-MD-231. Put plainly: TUNEL analysis of apoptosis. The format is cell-based, human. The following applies: 48 h. The text has this: (§4) FIGS. 7A-7C. TUNEL analysis of PLATINUM-401-mediated apoptosis. (FIG. 7A) Normal NIH3T3 fibroblasts and their v-Src-transformed counterparts (NIH3T3/v-Src), human breast carcinoma cell lines (MDA-MB-453, MDA-MB-435, MDA-MB-468, and MDA-MB-231), human non-small cell lung cancer cell line (A549), human prostate cancer cell line (DU145), multiple myeloma 5TGM1 (mouse) and U266 (human) cell lines, mouse melanoma cell line (B16) and human pancreatic cancer cell line (Panc1) were all treated with or without PLATINUM-401 for 48 h and analyzed by TUNEL for DNA damage. For each cell line, the activated Stat3 status is indicated as (−), no constitutively-active Stat3 and (+), constitutively-active Stat3 (see FIG. 5A). Data are representative of 3 independent determinations; (FIG. 7B) Human breast cancer cell lines (MDA-MB-453, MDA-MB-468 and MDA-MB-435) were transfected with or without Stat3β or Stat3 antisense (Stat3AS), or were treated with or without Stat3 peptidomimetic inhibitor, ISS 610 (1 mM) or PLATINUM-401 (5 μM)). Forty-eight hours afterwards, cells were harvested and processed for TUNEL analysis; (FIG. 7C) The viral Src-transformed NIH3T3/v-Src fibroblasts were transfected with or without wild-type Stat3 (pRc/CMV Stat3 Flag) and treated with or without 5 μM PLATINUM-401 for 36 h. Cells were subsequently harvested for nuclear extracts preparation and Stat3 DNA-binding assay in vitro with EMSA analysis (left panel), or were processed for TUNEL analysis (right panel).
(§5) Cell proliferation and TUNEL assays—Proliferating cells were first treated with or without PLATINUM-401 for up to 48 h. A portion of cells were harvested for BrdU incorporation following the manufacturer's (BD Biosciences Pharmingen, San Diego, Calif.) instructions and analyzed by flow cytometry. Harvested cells were also analyzed for apoptosis via detection of TdT-mediated dUTP nick-end labeling (TUNEL) assay using Apoptosis Detection Systems Fluorescein according to the manufacturer's (Roche, Indianapolis, Ind.) instructions. Oligonucleotides and plasmids Transfections. The Stat3 antisense (5′-[…]-3′) (SEQ ID NO:3) or control mismatch oligonucleotides (5′-[…]-3′) (SEQ ID NO:4) were synthesized using phosphorothioate chemistry and were synthesized with 2′-Omethoxyethyl modification of the five terminal nucleotides (underlined; (Mora et al., 2002; Karras et al., 2000)) to increase stability. Transfections of Stat3AS and plasmids were carried out with Lipofectamine 2000 (LF) according to the manufacturer's instructions (Invitrogen, Carlsbad, Calif.). Briefly, cells were seeded at 1-2×10^6 cells/10-cm tissue-culture plates 18 h before transfection. Immediately before transfection, cells were washed once with PBS. Cells were transfected with luciferase reporters (4 μg) in the presence or absence of v-Src (4 μg), or were transfected with Stat3β (4 μg) or pRC/CMV Stat3 Flag (4 μg). Stat3AS transfections were carried out LF alone, or with LF/Stat3 antisense oligonucleotides, or LF/Stat3 mismatch oligonucleotides (final concentration of the oligonucleotides was 250 nM). After 2-3 h, the transfection medium was aspirated and cells washed with PBS before fresh medium added containing 10% FBS was added.
(§6) Cells were analyzed for DNA-strand breaks by TUNEL staining. […] The incidence of apoptosis correlated with the prevalence of constitutively-active Stat3 in malignant cells (FIG. 7, lower panel). Moreover, the incidence of apoptosis by PLATINUM-401 in breast cancer cell lines (MDA-MB-468 and MDA-MB-435) harboring constitutively-active Stat3 compares favorably to that induced by other previously investigated Stat3 inhibitory approaches, such as Stat3β (Garcia et al., 2001), Stat3 antisense (Stat3AS) (Mora et al., 2002), peptidomimetic inhibitor of Stat3 (ISS 610) (FIG. 7B) (Turkson et al., 2004c), and contrasts with the absence of apoptosis in breast cancer cell line, MDA-MB-453 that lacks constitutively-active Stat3. […]

The subject of test [5] is DU145. Description: TUNEL analysis of apoptosis. The format is cell-based, human. To be noted: 48 h.
Text: as §4, §5, §6

The test system of test [6] is U266. Put plainly: TUNEL analysis of apoptosis. It is filed as cell-based, human. To be noted: 48 h.
Text: as §4, §5, §6

The subject of test [7] is MDA-MB-453. Put plainly: TUNEL analysis of apoptosis. The format is cell-based, human. The following applies: 48 h, no aberrant Stat3 activity.
Text: as §4, §5, §6

Test [8] has as its system A549. Description: TUNEL analysis of apoptosis. It is filed as cell-based, human. To be noted: 48 h.
Text: as §4, §5, §6

Test [9] deals with MDA-MB-435. Put plainly: TUNEL analysis of apoptosis. It is filed as cell-based, human. The following applies: 48 h.
Text: as §4, §5, §6

For test [10], the system named is Panc1. Put plainly: TUNEL analysis of apoptosis. It is filed as cell-based, human. To be noted: 48 h.
Text: as §4, §5, §6

In test [11] the test system is MDA-MB-468. Description: TUNEL analysis of apoptosis. The format is cell-based, human. The following applies: 48 h.
Text: as §4, §5, §6

T1 sequence (P42224 whole entry): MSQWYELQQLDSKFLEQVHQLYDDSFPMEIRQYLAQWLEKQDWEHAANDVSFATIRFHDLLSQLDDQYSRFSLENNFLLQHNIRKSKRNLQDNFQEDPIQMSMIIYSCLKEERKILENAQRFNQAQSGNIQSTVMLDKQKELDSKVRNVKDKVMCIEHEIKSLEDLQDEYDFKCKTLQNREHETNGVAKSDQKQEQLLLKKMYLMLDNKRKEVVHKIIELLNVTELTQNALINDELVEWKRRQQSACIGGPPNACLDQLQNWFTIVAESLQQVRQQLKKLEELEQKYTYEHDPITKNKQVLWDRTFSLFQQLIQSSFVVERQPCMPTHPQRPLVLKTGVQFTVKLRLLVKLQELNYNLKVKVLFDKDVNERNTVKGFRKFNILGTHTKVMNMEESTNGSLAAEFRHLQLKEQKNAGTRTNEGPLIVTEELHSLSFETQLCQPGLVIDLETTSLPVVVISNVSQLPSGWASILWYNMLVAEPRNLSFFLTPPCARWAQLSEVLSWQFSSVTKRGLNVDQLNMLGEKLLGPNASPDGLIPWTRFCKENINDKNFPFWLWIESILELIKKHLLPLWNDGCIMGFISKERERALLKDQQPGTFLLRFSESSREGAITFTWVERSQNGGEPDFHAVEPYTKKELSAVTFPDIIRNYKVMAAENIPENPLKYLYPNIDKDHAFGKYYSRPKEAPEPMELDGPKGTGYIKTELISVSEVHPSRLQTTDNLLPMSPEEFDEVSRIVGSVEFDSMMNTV

As for `CC(O)CN1CCN(CC(C)O)CC1` (stereo not drawn) [PLATINUM-401], the cell cycle profile entry in [1] is “no significant change”. Further, in [2] (BrdU, flow cytometry), the cell cycle change entry is “arrested at G0/G1 phase”. Moreover, the S phase cells result in test [2] (persists up to 48 h) is “significant decrease”. In addition, in [3], the “interaction with inactive Stat1 monomer” value is recorded as “also interacts”. Besides, the TUNEL staining result in [4] was “Significant TUNEL staining”; in test [5], “Significant TUNEL staining”; in test [6], “Significant TUNEL staining”; in [7], “no TUNEL staining”; in [8], “Significant TUNEL staining”; in test [9], “Significant TUNEL staining”. For the same compound, the TUNEL staining result in test [10] and in test [11] was “Significant TUNEL staining” each time.

Source of the values: patent US11571418B2, “Platinum compounds that inhibit constitutive STAT3 signaling and induce cell cycle arrest and apoptosis of malignant cells” (H. LEE MOFFITT CANCER CENTER AND RESEARCH INSTITUTE, INC., priority 2011, dated 2023).
